Results on 24 compounds are retold here after patent US8557796B2, “Substituted 1-oxa-2,8-diaza-spiro [4,5] dec-2-ene derivatives and related treatment methods” (Gruenenthal GmbH, priority 2001, dated 2013).

In this assay the test system is batrachotoxin (BTX) binding site (binding site 2) of the sodium channel. Description: Bond test on the sodium channel, binding site 2 (BTX bond), [3H]-batrachotoxinin A20 α-benzoate displacement. The following applies: rat cerebrocortex synaptosomes.
Turning to `O=C(C1=NOC2(CCN(S(=O)(=O)c3cccc(C(F)(F)F)c3)CC2)C1)N1CCN(c2cc(C(F)(F)F)ccn2)CC1` [Example 119], the “BTX bond, 10 μM, % inhibition” value was found to be 72%.
As for `O=C(NCc1cccs1)C1=NOC2(CCN(C(=O)c3cccc4ccccc34)CC2)C1` [Example 192, 8-(naphthalene-1-carbonyl)-1-oxa-2,8-diaza-spiro[4,5]dec-2-ene-3-carboxylic acid (thiophen-2-ylmethyl)-amide], the figure is 87%.
For the compound `O=C(NCc1cccs1)C1=NOC2(CCN(C(=O)c3ccc(Br)cc3)CC2)C1` [Example 141], the “BTX bond, 10 μM, % inhibition” value is reported as 61%.
With `O=C(NCc1ccccc1)C1=NOC2(CCN(C(=O)c3ccncc3)CC2)C1` [Example 102, 8-(pyridine-4-carbonyl)-1-oxa-2,8-diaza-spiro[4,5]dec-2-ene-3-carboxylic acid benzylamide], the “BTX bond, 10 μM, % inhibition” value was determined as 43%.
For the compound `O=C(NC1CCCC1OCc1ccccc1)C1=NOC2(CCN(S(=O)(=O)c3cccs3)CC2)C1` (stereo not drawn) [Example 47, 8-(thiophene-2-sulphonyl)-1-oxa-2,8-diaza-spiro[4,5]dec-2-ene-3-carboxylic acid (2-benzyloxy-cyclopentyl)-amide], the “BTX bond, 10 μM, % inhibition” value worked out at 71%.
On to `O=C(NCc1ccccc1)C1=NOC2(CCN(C(=O)c3cccc(SC(F)F)c3)CC2)C1` [Example 180, 8-(3-difluoromethylsulphanyl-benzoyl)-1-oxa-2,8-diaza-spiro[4,5]dec-2-ene-3-carboxylic acid benzylamide], for which the “BTX bond, 10 μM, % inhibition” value was 57%.
As to `O=C(C1=NOC2(CCN(S(=O)(=O)c3cc(Cl)ccc3Cl)CC2)C1)N(CCc1ccccc1)Cc1ccccc1` [Example 98, 8-(2,5-dichloro-benzenesulphonyl)-1-oxa-2,8-diaza-spiro[4,5]dec-2-ene-3-carboxylic acid benzyl-phenethyl-amide], the “BTX bond, 10 μM, % inhibition” value turned out to be 56%.
Regarding `CC(NC(=O)C1=NOC2(CCN(S(=O)(=O)c3ccc(Cl)s3)CC2)C1)c1cccc2c1OCCO2` (stereo not drawn) [Example 140, 8-(5-chloro-thiophene-2-sulphonyl)-1-oxa-2,8-diaza-spiro[4,5]dec-2-ene-3-carboxylic acid [1-(2,3-dihydro-benzo[1,4]dioxin-5-yl)-ethyl]-amide], the “BTX bond, 10 μM, % inhibition” value is 60%.
Turning to `O=C(NC1CCN(Cc2ccc(C(F)(F)F)cc2)C1)C1=NOC2(CCN(S(=O)(=O)c3cccs3)CC2)C1` (stereo not drawn) [Example 26, 8-(thiophene-2-sulphonyl)-1-oxa-2,8-diaza-spiro[4,5]dec-2-ene-3-carboxylic acid [1-(4-trifluoromethyl-benzyl)-pyrrolidin-3-yl]-amide], the “BTX bond, 10 μM, % inhibition” value was 84%.
The result for `O=C(NCCN1CCCC1)C1=NOC2(CCN(S(=O)(=O)c3ccc(F)c(Cl)c3)CC2)C1` [Example 11] reads 69%; that for `O=C(NCc1ccccc1)C1=NOC2(CCN(S(=O)(=O)c3cccc(Cl)c3)CC2)C1` [Example 210, 8-(3-chloro-benzenesulphonyl)-1-oxa-2,8-diaza-spiro[4,5]dec-2-ene-3-carboxylic acid benzylamide], 62%; that for `CN(C)S(=O)(=O)N1CCC2(CC1)CC(C(=O)N1CCN(CCCc3ccccc3)CC1)=NO2` [Example 80, 3-[4-(3-phenyl-propyl)-piperazine-1-carbonyl]-1-oxa-2,8-diaza-spiro[4,5]dec-2-ene-8-sulphonic acid dimethylamide], 44%.
The result for `O=C(NCc1ccccc1)C1=NOC2(CCN(C(=O)COc3cccc(Cl)c3)CC2)C1` [Example 166, 8-[2-(3-chloro-phenoxy)-acetyl]-1-oxa-2,8-diaza-spiro[4,5]dec-2-ene-3-carboxylic acid benzylamide] reads 58%; that for `O=C(C1=NOC2(CCN(S(=O)(=O)c3cccs3)CC2)C1)N1CCN(C2CCCCCC2)CC1` [Example 3, (4-cycloheptyl-piperazin-l-yl)-[8-(thiophene-2-sulphonyl)-1-oxa-2,8-diaza-spiro [4,5]dec-2-en-3-yl]-methanone], 78%; that for `O=C(NCc1ccc2c(c1)OCO2)C1=NOC2(CCN(S(=O)(=O)c3ccc(Cl)s3)CC2)C1` [Example 30, 8-(5-chloro-thiophene-2-sulphonyl)-1-oxa-2,8-diaza-spiro[4,5]dec-2-ene-3-carboxylic acid (benzo[1,3]dioxol-5-ylmethyl)-amide], 56%.
As for `O=C(C1=NOC2(CCN(S(=O)(=O)c3cc(Cl)ccc3Cl)CC2)C1)N1CCN(Cc2ccccc2)CC1` [Example 209, (4-benzyl-piperazin-l-yl)-[8-(2,5-dichloro-benzenesulphonyl)-1-oxa-2,8-diaza-spiro[4,5]dec-2-en-3-yl]-methanone], the figure is 61%; as for `O=C(NCc1cccs1)C1=NOC2(CCN(S(=O)(=O)c3ccc([N+](=O)[O-])cc3)CC2)C1` [Example 38, 8-(4-nitro-benzenesulphonyl)-1-oxa-2,8-diaza-spiro[4,5]dec-2-ene-3-carboxylic acid (thiophen-2-ylmethyl)-amide], 65%.
On to `CCOC(=O)N1CCC(NC(=O)C2=NOC3(CCN(C(=O)c4ccc(Br)cc4)CC3)C2)CC1` [Example 62, 4-{[8-(4-bromo-benzoyl)-1-oxa-2,8-diaza-spiro[4,5]dec-2-ene-3-carbonyl]-amino)-piperidine-l-carboxylic acid ethyl ester], for which the “BTX bond, 10 μM, % inhibition” value worked out at 49%.
Turning to `O=C(NC1CCCC1OCc1ccccc1)C1=NOC2(CCN(S(=O)(=O)c3cccc(C(F)(F)F)c3)CC2)C1` (stereo not drawn) [Example 201, 8-(3-trifluoromethyl-benzenesulphonyl)-1-oxa-2,8-diaza-spiro[4,5]dec-2-ene-3-carboxylic acid (2-benzyloxy-cyclopentyl)-amide], the “BTX bond, 10 μM, % inhibition” value is 61%.
Regarding `O=C(Nc1ccccc1)C1=NOC2(CCN(C(=O)c3ccc(Br)cc3)CC2)C1` [Example 181, 8-(4-bromo-benzoyl)-1-oxa-2,8-diaza-spiro[4,5]dec-2-ene-3-acarboxylic cid phenylamide], the “BTX bond, 10 μM, % inhibition” value is recorded as 50%.
Turning to `Cc1cc(C(=O)N2CCC3(CC2)CC(C(=O)NCC(C)C)=NO3)ccc1Br` [Example 88, 8-(4-bromo-3-methyl-benzoyl)-1-oxa-2,8-diaza-spiro[4,5]dec-2-ene-3-carboxylic acid isobutyl-amide], the “BTX bond, 10 μM, % inhibition” value is 45%.
Turning to `COc1ccc(S(=O)(=O)N2CCC3(CC2)CC(C(=O)NC2CC2c2ccccc2)=NO3)cc1` (stereo not drawn) [Example 182, 8-(4-methoxy-benzenesulphonyl)-1-oxa-2,8-diaza-spiro[4,5]dec-2-ene-3-carboxylic acid (2-phenyl-cyclopropyl)-amide], the “BTX bond, 10 μM, % inhibition” value was determined as 47%.
As for `Cc1ccccc1N1CCN(C(=O)C2=NOC3(CCN(S(=O)(=O)Cc4ccccc4)CC3)C2)CC1` [Example 133, (8-phenylmethanesulphonyl-1-oxa-2,8-diaza-spiro[4,5]dec-2-en-3-yl)-(4-o-tolyl-piperazin-l-yl)-methanone], the figure is 47%; as for `Cc1ccc(S(=O)(=O)N2CCC3(CC2)CC(C(=O)N2CCN(c4ccc(C)cc4C)CC2)=NO3)cc1` [Example 33, [4-(2,4-dimethyl-phenyl)-piperazin-l-yl]-[8-(toluene-4-sulphonyl)-1-oxa-2,8-diazaspiro[4,5]dec-2-en-3-yl]methanone], 67%.
